Source: patent US11883387B2, “PqsR inverse agonists” (HELMHOLTZ-ZENTRUM FÜR INFEKTIONSFORSCHUNG GMBH, priority 2018, dated 2024)
≈ marks a conversion by molar mass, not a printed value. Like-named read-outs stand apart in the source and are kept apart here.

Experiments:
[1] = target: T1, PqsR (Pseudomonas aeruginosa, UniProt Q9I4X0); set-up: host or cells: P. aeruginosa; conditions: read-out: IC50 in P. aeruginosa reporter gene assay; cited from earlier work
[2] = system: pyocyanin production; conditions: in cellulo; read-out: inhibition of virulence factor pyocyanin production IC50; cited from earlier work
[3] = target: T1, PqsR; set-up: expressed in transfected cells; host or cells: Escherichia coli DH5α; conditions: read-out: IC50 in E. coli reporter gene assay; cited from earlier work
[4] = system: production of signal molecules HHQ and PQS; conditions: at 15 μM; cited from earlier work
[5] = system: HEK293 cells; test: Cytotoxicity (MTT) toward HEK293; format: cell-based; conditions: Homo sapiens, 48 h, upper class: or at solubility maximum, read-out: IC50-value towards HEK293
Protocol: (§1) To obtain information regarding the toxicity of our compounds, their impact on the viability of human cells was investigated. HepG2 and HEK293 cells (2×10^5 per well) were seeded in 24-well, flat-bottomed culture plates. 24 h after seeding the cells the incubation was started by the addition of compounds in a final DMSO concentration of 1%. The living cell mass was determined 48 h after treatment with compounds by adding 0.1 volumes of 3-(4,5-dimethylthiazol-2-yl)-2,5-diphenyltetrazolium bromide (MTT) solution (5 mg per mL sterile PBS) (Sigma, St. Louis, MO) to the wells. After incubating the cells for 30 min at 37° C. (atmosphere containing 5% CO2), MTT crystals were dissolved in a solution containing 10% SDS and 0.5% acetic acid in DMSO. The optical density (OD) of the samples was determined photometrically at 570 nm in a FLUOstar Omega plate reader (BMG labtech, Ortenberg, Germany). To obtain inhibition values for each sample, their ODs were related to those of DMSO controls.

[6] = target: T1, PqsR; test: E. coli based β-galactosidase reporter gene assay (PqsR inverse agonistic activity); format: cell-based; set-up: expressed in transfected cells; host or cells: Escherichia coli DH5α
Outline: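 E. coli DH5α carrying pEAL08-2 (tac-driven pqsR with pqsA-lacZ) was grown to OD600 0.2 and incubated with 0.001–10 μM compound plus 50 nM PQS for 2.5 h at 37 °C. β-Galactosidase activity was measured by ONPG conversion in permeabilized cells and normalized between the no-PQS and solvent controls. IC50 came from concentration variation.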

[7] = system: P. aeruginosa pyocyanin production; test: Pyocyanin assay; format: cell-based, P. aeruginosa PA14; conditions: Pseudomonas aeruginosa, PA14, 16 h, read-out: IC50-value towards pyocyanin production, PA14 in PPGAS medium, 16 h
Outline: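 PA14 in PPGAS medium from OD600 0.02 grown 16 h at 37 °C, 200 rpm, with compounds. Pyocyanin extracted with chloroform, back-extracted into 0.2 M HCl, OD520 normalised to OD600.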

[8] = system: HepG2 cells; test: Cytotoxicity (MTT) toward HepG2; format: cell-based; conditions: Homo sapiens, 48 h, upper class: or at solubility maximum, read-out: IC50-value towards HepG2
Protocol: as §1

[9] = system: P. aeruginosa PA14 biofilm; test: Biofilm assay, crystal violet staining (biofilm mass); format: cell-based; conditions: Pseudomonas aeruginosa, PA14, PPGAS medium, read-out: IC50-value towards biofilm formation
Protocol: (§2) Commonly used crystal violet (CV) assay procedures (PMID: 3905855, PMID: 10547784, PMID: 22488868) were adapted for determination of biofilm mass. For the cultivation of biofilm in 96 well plates, the protocol described by Frei et al. (PMID: 22488868) was slightly modified by replacement of medium and Pseudomonas strain used. The experiment was performed using P. aeruginosa PA14 strain and PPGAS medium. CV staining was used to detect compound effects on the overall biofilm biomass. Impact on eDNA was assessed by incubation of biofilm with propidium iodine solution (0.05 mg ml^−1) for 24 h and detection of specific florescence at 620 nm (excitation 544 nm) after a thorough washing step with 18 MΩ H2O. (PMID: 16430688)

[10] = Metabolic stability against human hepatic S9 fraction; format: in vitro ADME; conditions: pooled human liver S9 fraction; 1 μM compound, 1 mg/mL pooled human liver S9, phase I and II cofactors, 37° C.; read-out: half-life (t1/2) towards human hepatic S9 fraction
Protocol: For the evaluation of combined phase I and phase II metabolic stability, the compound (1 μM) was incubated with 1 mg/mL pooled human liver S9 fraction (BD Gentest), 2 mM NADPH regenerating system, 1 mM UDPGA, 10 mM MgCl2 and 0.1 mM PAPS at 37° C. for 0, 5, 15, 30 and 60 min. The metabolic stability of Testosterone (1 μM) and 7-hydroxycoumarin (1 μM) were determined in parallel to confirm the enzymatic activity of the S9 fraction. The incubation was stopped by precipitation of S9 enzymes with 2 volumes of cold acetonitrile containing internal standard (750 nM Diphenhydramine). Samples were stored on ice for 10 min and precipitated protein was removed by centrifugation (10 min, 4° C., 17,000 g). Concentration of the remaining test compound at the different time points was analyzed by LC-MS/MS (TSQ Quantum Access MAX, Thermo Fisher, Dreieich, Germany) and used to determine half-life (t/2).

[11] = system: eDNA content of P. aeruginosa PA14 biofilm; test: Biofilm assay, eDNA content (propidium iodine); format: cell-based; conditions: Pseudomonas aeruginosa; PA14, propidium iodine fluorescence; read-out: IC50-value towards eDNA content of the biofilm
Protocol: as §2

[12] = Turbidimetric Aqueous Solubility at 37° C. for 2 h; format: physicochemical; conditions: aqueous buffer, kinetic from dmso stock, 1% DMSO in buffer, estimated precipitation range
Protocol: Turbidimetric Aqueous Solubility at 37° C. for 2 h. Test compound was diluted in buffer to give a range of concentrations (typically 1, 3, 10, 30 and 100 μM, final DMSO concentration 1%) and incubated at 37° C. for 2 hr. Absorbance was measured at a wavelength of 620 nm and the solubility was estimated from the concentration of test compound that produces an increase in absorbance above the vehicle control (i.e., 1% DMSO in buffer). An estimated precipitation range (lower and upper bound) was provided as result.

[13] = Kinetic Turbidimetric Aqueous Solubility at room temperature for 5 min; format: physicochemical; conditions: PBS buffer, kinetic from dmso stock, 2% DMSO
Outline: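 Compound diluted in PBS across typically 0.4–200 μM (final DMSO 2%), held 5 min at room temperature. Turbidity read as absorbance at 620 nm against vehicle control. Four-parameter sigmoidal fit of normalized absorbances with AUC calculation gives Log S.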

T1 sequence (Q9I4X0 whole entry): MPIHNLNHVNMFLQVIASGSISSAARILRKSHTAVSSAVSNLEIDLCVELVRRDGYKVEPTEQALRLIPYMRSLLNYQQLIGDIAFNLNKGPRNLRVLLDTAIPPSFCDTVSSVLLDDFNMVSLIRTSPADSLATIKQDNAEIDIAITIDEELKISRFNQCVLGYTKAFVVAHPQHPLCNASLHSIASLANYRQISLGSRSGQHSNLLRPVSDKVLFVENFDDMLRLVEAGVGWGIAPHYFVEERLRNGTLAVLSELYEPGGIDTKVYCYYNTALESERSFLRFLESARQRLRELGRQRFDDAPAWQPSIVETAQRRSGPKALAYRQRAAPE

SMILES	IC50 [1] [µM]	IC50 [2] [µM]	IC50 [3] [µM]	reduction of HHQ production [4] [%]	reduction of PQS production [4] [%]	IC50 [5] [µM]	IC50 [6] [µM]	IC50 [7] [µM]	IC50 [8] [µM]	IC50 [9] [µM]	half-life at 1 μM [10] [h]	IC50 [11] [µM]	solubility at 2 h [12] [µM]	solubility at 5 min [13] [µM]
CCCCCCCc1[nH]c2ccc([N+](=O)[O-])cc2c(=O)c1C(N)=O [2-heptyl-6-nitro-4-oxo-1,4-dihydroquinoline-3-carboxamide]	0.4	2	0.035	54	37	–	–	–	–	–	–	–	–	–
FC(F)(F)c1cc(NCc2cn(-c3ccc(Oc4ccccc4)cc3)nn2)ccn1 [Compound 001, N-((1-(4-Phenoxyphenyl)-1H-1,2,3-triazol-4-yl)methyl)-2-(trifluoromethyl) pyridin-4-amine]	–	–	–	–	–	25 to 50	≤ 0.05	≤ 0.25	25 to 50	≤ 0.5	0.683 to 1	< 0.5	–	–
COc1ccc(-n2cc(CNc3ccnc(C(F)(F)F)c3)nn2)cc1Cl [Compound 017, N-((1-(3-chloro-4-methoxyphenyl)-1H-1,2,3-triazol-4-yl)methyl)-2-(trifluoromethyl)pyridin-4-amine]	–	–	–	–	–	–	≤ 0.05	0.251 to 1	–	≤ 0.5	0.683 to 1	–	10 to 30 (≈ 3.84 to 11.5 µg/mL)	> 50
FC(F)(F)c1cc(SCc2nc3ccc(Oc4ccccc4)cc3o2)ccn1 [Compound 132, 6-Phenoxy-2-(((2-(trifluoromethyl)pyridin-4-yl)thio)methyl)benzo[d]oxazole]	–	–	–	–	–	25 to 50	0.051 to 0.25	0.251 to 1	–	–	> 1	–	10 to 30 (≈ 4.02 to 12.1 µg/mL)	–
